Data as given in patent US20070264340A1, “Aromachemicals” (Flexitral, Inc., priority 2006, published 2007).

Experiment: stability to acid
Type: physicochemical

- stability to acid: stable to acid
Compound: CC(C)=CCCC1(C)CC1C=O (racemic) [2-methyl-2-(4-methylpent-3-en-1-yl)cyclopropanecarbaldehyde]
